Values joined by “and” are separate entries in the source; they are usually repeats but may differ in a detail not shown here. Equal entries are not always repeated.
Key:
Assay in all cases: Kinase inhibition screen, cell-free 33P ATP assay at 10 μM
Type in all cases: biochemical
[1] = biological target: 140 purified human kinases (Homo sapiens, UniProt Q13233)
How it was run: (§1)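 Radiometric ^33P ATP cell-free format with purified enzymes; both complexes run at 10 μM in duplicate, results plotted on a kinome map via HGNC symbols.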

[2] = biological target: 140 purified human kinases (Homo sapiens, UniProt P17252); conditions: PKCa
How it was run: as §1

[3] = biological target: 140 purified human kinases (Homo sapiens, UniProt P36507)
140 purified human kinases (Homo sapiens, UniProt P36507), sequence (P36507 whole entry): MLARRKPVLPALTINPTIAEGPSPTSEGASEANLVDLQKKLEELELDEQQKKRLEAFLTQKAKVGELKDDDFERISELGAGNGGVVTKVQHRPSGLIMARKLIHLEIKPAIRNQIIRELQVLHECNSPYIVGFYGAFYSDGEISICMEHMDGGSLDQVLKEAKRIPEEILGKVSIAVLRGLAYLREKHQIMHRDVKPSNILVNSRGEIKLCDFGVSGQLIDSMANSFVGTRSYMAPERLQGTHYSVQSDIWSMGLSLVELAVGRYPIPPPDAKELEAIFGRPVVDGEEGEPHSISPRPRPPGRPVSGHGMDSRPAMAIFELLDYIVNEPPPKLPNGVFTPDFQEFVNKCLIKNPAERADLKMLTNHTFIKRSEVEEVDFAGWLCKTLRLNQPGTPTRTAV
How it was run: as §1

[4] = biological target: 140 purified human kinases (Homo sapiens, UniProt P48730); conditions: CK1δ; for % Activity Run 1 / % Activity Run 2: 10 µM
140 purified human kinases (Homo sapiens, UniProt P48730), sequence (P48730 whole entry): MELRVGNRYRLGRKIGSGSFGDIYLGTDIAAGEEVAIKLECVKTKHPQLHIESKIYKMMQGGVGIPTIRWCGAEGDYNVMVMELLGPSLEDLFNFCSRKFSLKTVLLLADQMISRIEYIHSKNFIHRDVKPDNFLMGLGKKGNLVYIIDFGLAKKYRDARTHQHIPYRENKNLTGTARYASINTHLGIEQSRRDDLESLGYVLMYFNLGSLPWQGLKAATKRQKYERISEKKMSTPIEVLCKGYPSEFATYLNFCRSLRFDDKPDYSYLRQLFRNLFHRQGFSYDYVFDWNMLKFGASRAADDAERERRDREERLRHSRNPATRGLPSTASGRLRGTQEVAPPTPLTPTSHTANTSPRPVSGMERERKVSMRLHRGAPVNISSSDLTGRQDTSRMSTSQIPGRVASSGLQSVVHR
How it was run: as §1

[5] = biological target: T1, 140 purified human kinases (Homo sapiens, UniProt P54762)
T1 sequence (P54762 18-984): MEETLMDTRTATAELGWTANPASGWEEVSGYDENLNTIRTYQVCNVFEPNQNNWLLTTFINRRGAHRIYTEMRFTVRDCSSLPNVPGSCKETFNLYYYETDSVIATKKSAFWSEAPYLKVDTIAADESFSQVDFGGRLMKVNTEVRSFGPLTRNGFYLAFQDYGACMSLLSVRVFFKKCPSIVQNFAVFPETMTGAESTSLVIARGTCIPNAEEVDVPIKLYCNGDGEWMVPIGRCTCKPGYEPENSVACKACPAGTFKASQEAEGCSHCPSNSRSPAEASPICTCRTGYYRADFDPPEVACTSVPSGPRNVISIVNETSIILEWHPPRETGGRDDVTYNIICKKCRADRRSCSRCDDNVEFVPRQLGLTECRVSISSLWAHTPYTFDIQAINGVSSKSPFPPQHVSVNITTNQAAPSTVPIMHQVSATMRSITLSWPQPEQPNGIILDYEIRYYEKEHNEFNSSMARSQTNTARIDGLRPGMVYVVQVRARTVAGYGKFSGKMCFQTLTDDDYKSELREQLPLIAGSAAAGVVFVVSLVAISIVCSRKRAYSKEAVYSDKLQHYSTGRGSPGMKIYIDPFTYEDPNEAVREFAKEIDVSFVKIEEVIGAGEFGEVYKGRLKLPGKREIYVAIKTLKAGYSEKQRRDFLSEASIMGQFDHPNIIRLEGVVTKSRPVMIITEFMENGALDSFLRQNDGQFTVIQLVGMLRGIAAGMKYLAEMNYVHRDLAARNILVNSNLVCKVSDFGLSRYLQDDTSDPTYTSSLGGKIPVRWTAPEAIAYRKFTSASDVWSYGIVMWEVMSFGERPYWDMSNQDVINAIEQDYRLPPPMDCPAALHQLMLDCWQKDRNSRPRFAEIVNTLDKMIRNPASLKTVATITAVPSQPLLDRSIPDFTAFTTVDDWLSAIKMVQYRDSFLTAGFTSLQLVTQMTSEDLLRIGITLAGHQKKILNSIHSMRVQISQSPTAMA
How it was run: as §1

[6] = biological target: 140 purified human kinases (Homo sapiens, UniProt P24941); conditions: CDK2-Cyclin A
How it was run: as §1

[7] = biological target: T2, 140 purified human kinases (Homo sapiens, UniProt Q12851); conditions: GCK
T2 sequence (Q12851 1-820): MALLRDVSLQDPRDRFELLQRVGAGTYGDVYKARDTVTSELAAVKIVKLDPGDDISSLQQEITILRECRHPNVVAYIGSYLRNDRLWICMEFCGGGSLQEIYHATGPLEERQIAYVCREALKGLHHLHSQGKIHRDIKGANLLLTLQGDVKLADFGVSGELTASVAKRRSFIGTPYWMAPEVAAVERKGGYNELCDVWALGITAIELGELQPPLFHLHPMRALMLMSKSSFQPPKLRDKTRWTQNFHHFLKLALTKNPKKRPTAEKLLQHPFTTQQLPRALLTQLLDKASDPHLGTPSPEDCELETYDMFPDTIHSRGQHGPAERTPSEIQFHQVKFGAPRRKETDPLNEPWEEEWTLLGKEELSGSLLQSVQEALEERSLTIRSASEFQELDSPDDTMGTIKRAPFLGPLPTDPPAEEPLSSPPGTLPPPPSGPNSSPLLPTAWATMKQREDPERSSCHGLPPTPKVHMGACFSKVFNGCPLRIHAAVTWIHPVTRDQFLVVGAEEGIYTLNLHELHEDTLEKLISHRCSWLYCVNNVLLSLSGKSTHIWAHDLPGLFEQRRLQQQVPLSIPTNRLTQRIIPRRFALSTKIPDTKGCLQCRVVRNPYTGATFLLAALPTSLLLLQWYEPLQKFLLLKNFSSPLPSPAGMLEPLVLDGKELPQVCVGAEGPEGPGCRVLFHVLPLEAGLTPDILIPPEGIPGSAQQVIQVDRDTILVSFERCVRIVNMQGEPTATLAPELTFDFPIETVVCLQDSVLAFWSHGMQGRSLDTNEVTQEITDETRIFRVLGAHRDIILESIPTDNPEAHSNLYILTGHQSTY
How it was run: as §1

140 purified human kinases (Homo sapiens, UniProt Q13233), sequence (Q13233 whole entry): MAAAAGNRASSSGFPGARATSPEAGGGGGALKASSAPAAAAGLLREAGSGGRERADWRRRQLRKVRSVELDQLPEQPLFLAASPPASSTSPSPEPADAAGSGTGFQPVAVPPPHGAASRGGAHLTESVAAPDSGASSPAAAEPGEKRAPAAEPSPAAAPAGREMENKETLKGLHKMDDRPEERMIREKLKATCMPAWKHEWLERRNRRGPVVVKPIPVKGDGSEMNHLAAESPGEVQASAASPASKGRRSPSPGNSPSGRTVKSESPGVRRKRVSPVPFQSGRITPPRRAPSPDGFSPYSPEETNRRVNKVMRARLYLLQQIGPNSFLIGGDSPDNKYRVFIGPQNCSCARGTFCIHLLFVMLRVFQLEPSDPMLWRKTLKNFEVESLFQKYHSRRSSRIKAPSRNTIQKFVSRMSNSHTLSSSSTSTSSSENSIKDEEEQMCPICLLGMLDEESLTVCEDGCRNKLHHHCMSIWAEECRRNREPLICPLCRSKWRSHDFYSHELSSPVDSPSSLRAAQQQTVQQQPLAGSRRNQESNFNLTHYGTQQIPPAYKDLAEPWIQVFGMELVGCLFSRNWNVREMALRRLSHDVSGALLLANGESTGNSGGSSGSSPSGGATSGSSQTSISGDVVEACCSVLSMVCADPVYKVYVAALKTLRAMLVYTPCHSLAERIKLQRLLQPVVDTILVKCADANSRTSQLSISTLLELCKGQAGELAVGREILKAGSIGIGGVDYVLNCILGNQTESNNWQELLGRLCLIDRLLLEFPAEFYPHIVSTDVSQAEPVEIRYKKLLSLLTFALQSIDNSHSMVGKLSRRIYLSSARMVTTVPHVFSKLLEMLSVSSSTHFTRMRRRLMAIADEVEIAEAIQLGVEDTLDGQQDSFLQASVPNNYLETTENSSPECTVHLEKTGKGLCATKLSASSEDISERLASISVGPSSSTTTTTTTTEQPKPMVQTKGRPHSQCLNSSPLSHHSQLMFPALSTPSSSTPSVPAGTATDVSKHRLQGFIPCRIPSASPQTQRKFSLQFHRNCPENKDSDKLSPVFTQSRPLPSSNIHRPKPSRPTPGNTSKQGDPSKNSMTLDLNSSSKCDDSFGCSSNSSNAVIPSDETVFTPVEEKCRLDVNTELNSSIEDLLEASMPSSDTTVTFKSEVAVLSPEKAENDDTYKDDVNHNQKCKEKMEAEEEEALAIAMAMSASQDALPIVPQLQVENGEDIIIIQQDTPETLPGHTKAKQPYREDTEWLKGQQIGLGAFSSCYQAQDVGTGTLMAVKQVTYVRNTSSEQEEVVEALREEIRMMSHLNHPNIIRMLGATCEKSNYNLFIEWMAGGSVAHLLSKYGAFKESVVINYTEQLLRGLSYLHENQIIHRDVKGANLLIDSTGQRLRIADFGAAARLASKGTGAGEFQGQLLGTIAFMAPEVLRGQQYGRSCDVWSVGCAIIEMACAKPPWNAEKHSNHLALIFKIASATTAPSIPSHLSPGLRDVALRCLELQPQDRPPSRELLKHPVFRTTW

## [Cu+2].[Cu+2].[Cu+2].c1ccc(-c2csc(NCCN(CCNc3nc(-c4ccccn4)cs3)CCNc3nc(-c4ccccn4)cs3)n2)nc1.c1ccc(-c2csc(NCCN(CCNc3nc(-c4ccccn4)cs3)CCNc3nc(-c4ccccn4)cs3)n2)nc1 [[L2Cu3]6+]
[1]; MEKK1
  % Inhibition Run 1: 48.4%
  % Inhibition Run 2: 57.6%
  % Inhibition, Mean: 53%
  mean % activity: 47%
[1]; MEKK1, Run 1
  % activity: 51.6%
[1]; MEKK1, Run 2
  % activity: 42.4%
[2]
  % Inhibition Run 1: 45.4%
  % Inhibition Run 2: 66.7%
  % Inhibition, Mean: 56%
  mean % activity: 44%
[2]; Run 1
  % activity: 54.6%
[2]; Run 2
  % activity: 33.3%
[3]; MKK2
  % Inhibition Run 1: 70.5%
  % Inhibition Run 2: 79%
  % Inhibition, Mean: 75%
  mean % activity: 25%
[3]; MKK2, Run 1
  % activity: 29.5%
[3]; MKK2, Run 2
  % activity: 21%
[4]
  % Activation, Mean value: 12%
  % Inhibition Run 1: -26.4%
  % Inhibition Run 2: 2.3%
  % Inhibition, Mean: -12%
  mean % activity: 112%
  % Activity Run 1: 126.40%
  % Activity Run 2: 97.70%
[4]; Run 1
  % activity: 126.4%
[4]; Run 2
  % activity: 97.7%
[5]; EPH-B1
  % Activation, Mean value: 14%
  % Inhibition Run 1: -9.9%
  % Inhibition Run 2: -17.3%
  % Inhibition, Mean: -14%
  mean % activity: 114%
[5]; EPH-B1, Run 1
  % activity: 109.9%
[5]; EPH-B1, Run 2
  % activity: 117.3%
[5]; EPH-B1, 10 µM
  % Activity Run 1: 109.90%
  % Activity Run 2: 117.30%
[6]
  % Activation, Mean value: 9.5%
  % Inhibition Run 1: -10.1%
  % Inhibition Run 2: -8.9%
  % Inhibition, Mean: -9.5%
  mean % activity: 110%
[6]; Run 1
  % activity: 110.1%
[6]; Run 2
  % activity: 108.9%
[6]; 10 µM
  % Activity Run 1: 110.10%
  % Activity Run 2: 108.90%
[7]
  % Inhibition Run 1: 83.9%
  % Inhibition Run 2: 84.3%
  % Inhibition, Mean: 84%
  mean % activity: 16%
[7]; Run 1
  % activity: 16.1%
[7]; Run 2
  % activity: 15.7%

## CC(=O)[O-].CC(=O)[O-].CC(=O)[O-].CC(=O)[O-].CC(=O)[O-].CC(=O)[O-].[Zn+2].[Zn+2].[Zn+2].c1ccc(-c2csc(NCCN(CCNc3nc(-c4ccccn4)cs3)CCNc3nc(-c4ccccn4)cs3)n2)nc1.c1ccc(-c2csc(NCCN(CCNc3nc(-c4ccccn4)cs3)CCNc3nc(-c4ccccn4)cs3)n2)nc1 [[L2Zn3]6+]
[1]; MEKK1
  % Inhibition, Mean: 17%
  mean % activity: 83%
[1]; MEKK1, duplicate runs
  % activity: 75% and 92%
[2]
  % Inhibition, Mean: 42%
  % Inhibition, Run 1 / Run 2: 45% and 40%
  mean % activity: 58%
[2]; duplicate runs
  % activity: 56% and 60%
[3]; MKK2
  % Inhibition, Mean: 42%
  % Inhibition, Run 1 / Run 2: 40% and 45%
  mean % activity: 58%
[3]; MKK2, duplicate runs
  % activity: 60% and 55%
[4]
  % Activation, Mean value: 19%
  % Inhibition, Mean: -19%
  mean % activity: 119%
  % Activity Run 1: 131.0%
  % Activity Run 2: 107.0%
[4]; duplicate runs
  % activity: 131% and 107%
[5]; EPH-B1
  % Inhibition, Mean: -0.2%
  % Inhibition, Run 1 / Run 2: 4% and -4.6%
  mean % activity: 100%
[5]; EPH-B1, duplicate runs
  % activity: 96% and 105%
[6]
  % Inhibition, Mean: 1.8%
  mean % activity: 98%
[6]; duplicate runs
  % activity: 93% and 103%
[7]
  % Inhibition, Mean: 83%
  % Inhibition, Run 1 / Run 2: 88% and 78%
  mean % activity: 17%
[7]; 10 µM
  % Activity inhibition Mean: 83.0%
  % Activity inhibition Run 1: 88%
  % Activity inhibition Run 2: 78%
  % Activity remaining Run 1: 12%
  % Activity remaining Run 2: 22%
[7]; duplicate runs
  % activity: 12% and 22%
